# Results taken from article PMC8157854, “Radiosynthesis and Evaluation of Talazoparib and Its Derivatives as PARP-1-Targeting Agents” (Biomedicines, 2021).
# Tests used:
# [1] = molecular target: PARP-1 (Homo sapiens, UniProt P09874); assay: Competitive binding assay with [3H]WC-DZ in U251MG cells; details: for pseudoHill coefficient n′H: competitive binding vs [3H]WC-DZ in U251MG cells, Mean ± SEM, n = 3
# Text: After the reaction was completed, the cells were washed once with ice-cold PBS and the bound radioactivity was counted and analyzed as described above.
# Competitive dissociation constants (Ki values) were derived from the Cheng and Prussoff equation [24]: Ki=IC50/1+Lt/Kd
# Data from competitive binding were transformed to determine the pseudo-Hill coefficient, n′H, using the following equation: logBs/B0−Bs=n^′HlogI−n^′HlogIC50, in which the negative of the Hill slope, n′H, can be readily calculated by a linear regression of plotting logBs/B0−Bs vs. logI , as we published [22, 25].
# [2] = test system: PC-3 prostate tumors; assay: Biodistribution of [18F]talazoparib in PC-3 tumor-bearing SCID mice; format: in vivo; details: for tumor uptake: PC-3 tumor
# Text: 2.5. Xenograft Model The animal studies were approved by Washington University’s Institutional Animal Care and Use Committee (IACUC), Protocol #20-0214 approved 7 August 2020. The overall animal care was following The Guide for the Care and Use of Laboratory Animals from the National Research Council and the USDA Animal Care Resource Guide. Mature SCID mice from Charles River Laboratories were allowed to acclimate in an AALAC accredited housing facility for at least 1 week before tumor implantation for the biodistribution study. Male SCID mice (4 weeks old, n = 4/group, 2 groups), with 1 × 10^7 PC-3 prostate cancer cells implanted subcutaneously in the right shoulder grew for about 35 days before the radiotracer biodistribution studies. 2.6. Biodistribution Animals were intravenously injected with [^18F]talazoparib (120 µCi) in 10% ethanol/saline (100 µL) via the tail vein. At the specified time point (4 and 8 h), the mice were sacrificed, the blood, lungs, liver, spleen, kidneys, muscle, fat, heart, brain, bone, bone marrow, prostate, pancreas, and tumor were harvested, weighed, and counted in a γ-counter. The percentage injected dose per gram of tissue (%ID/g) was determined by decay correction of the [^18F]talazoparib for each sample and then normalized by the standard injected radiotracer dose and the sample weight.
# [3] = test system: intratumoral PAR; design: method as in PMID 26652717; details: at 2 and 8 h time points, partial recovery at 24 h; cited from earlier work
# [4] = test system: P-glycoprotein (P-gp); design: method as in PMID 31770456; details: cited from earlier work
# Chain of PARP-1 (P09874 whole entry): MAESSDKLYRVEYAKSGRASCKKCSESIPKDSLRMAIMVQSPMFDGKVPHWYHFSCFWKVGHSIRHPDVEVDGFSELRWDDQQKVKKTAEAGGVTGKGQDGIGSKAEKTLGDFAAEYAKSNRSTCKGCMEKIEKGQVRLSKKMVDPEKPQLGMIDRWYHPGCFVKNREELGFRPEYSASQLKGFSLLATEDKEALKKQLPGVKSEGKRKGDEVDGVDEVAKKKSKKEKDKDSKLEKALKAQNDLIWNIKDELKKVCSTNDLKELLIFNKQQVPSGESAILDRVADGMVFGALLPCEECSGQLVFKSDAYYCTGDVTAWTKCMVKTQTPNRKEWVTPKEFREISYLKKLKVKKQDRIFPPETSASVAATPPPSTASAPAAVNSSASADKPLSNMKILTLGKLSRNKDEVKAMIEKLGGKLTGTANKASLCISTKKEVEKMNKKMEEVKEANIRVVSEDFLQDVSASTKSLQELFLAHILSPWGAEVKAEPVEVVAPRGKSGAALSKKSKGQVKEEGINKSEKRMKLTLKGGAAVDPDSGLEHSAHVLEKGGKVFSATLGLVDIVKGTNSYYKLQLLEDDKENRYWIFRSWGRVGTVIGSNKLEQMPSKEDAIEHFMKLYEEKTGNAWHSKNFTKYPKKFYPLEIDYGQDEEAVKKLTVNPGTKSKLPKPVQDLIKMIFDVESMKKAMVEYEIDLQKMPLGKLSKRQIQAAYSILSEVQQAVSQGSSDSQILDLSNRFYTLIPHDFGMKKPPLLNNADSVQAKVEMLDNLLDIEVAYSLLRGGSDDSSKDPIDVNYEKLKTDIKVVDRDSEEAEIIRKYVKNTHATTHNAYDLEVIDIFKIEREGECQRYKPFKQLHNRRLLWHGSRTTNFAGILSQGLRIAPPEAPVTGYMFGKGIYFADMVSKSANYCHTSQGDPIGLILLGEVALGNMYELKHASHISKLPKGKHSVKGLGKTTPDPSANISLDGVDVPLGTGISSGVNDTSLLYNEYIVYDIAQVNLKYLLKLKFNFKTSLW
smiles,measurement,setting,value
"Cn1ncnc1C1c2n[nH]c(=O)c3cc(F)cc(c23)NC1c1ccc(I)cc1 (centres unmarked) [Compound 3c, 8-(4-iodophenyl)-5-fluoro-9-(1-methyl-1H-1,2,4-triazol-5-yl)-2,7,8,9-tetrahydro-3H-pyrido[4,3,2-de]phthalazin-3-one]",Ki,[1],1.73 ± 0.43 nM
same,pseudoHill coefficient n′H,[1],1.01 ± 0.20
Cn1ncnc1[C@H]1c2n[nH]c(=O)c3cc(F)cc(c23)N[C@@H]1c1ccc([18F])cc1 [[^18F]talazoparib],tumor uptake,"[2]; 4 h post-injection, i.v., SCID mice",3.78 ± 0.55 %ID/gram
same,tumor uptake,"[2]; 8 h post-injection, i.v., SCID mice",4.52 ± 0.32 %ID/gram
same,"uptake in liver, spleen, kidney, and pancreas","[2]; after 4 h, only slightly reduced at 8 h",High uptake
same,uptake in bone marrow,[2]; at 4 and 8 h,high
same,time for clearance of radioactivity from the blood,"[2]; blood, i.v., SCID mice",≤ 4 h
same,brain uptake,"[2]; brain, 4 h post-injection, i.v., SCID mice",0.05 ± 0.01 %ID/gram
"Cn1ncnc1C1c2n[nH]c(=O)c3cc(F)cc(c23)NC1c1ccc(Br)cc1 (centres unmarked) [Compound 3b, 8-(4-bromophenyl)-5-fluoro-9-(1-methyl-1H-1,2,4-triazol-5-yl)-2,7,8,9-tetrahydro-3H-pyrido[4,3,2-de]phthalazin-3-one]",Ki,[1],1.92 ± 0.41 nM
same,pseudoHill coefficient n′H,[1],1.24 ± 0.24
"CCN1CCC[C@H]1CNC(=O)c1c(O)c(Cl)cc(Cl)c1OC [Raclopride, reference compound]",Ki,[1],> 20000 nM
same,displacement of [3H]WC-DZ,"[1]; U251MG cells, 0.1 nM to 1 µM",No apparent displacement
"Cn1ncnc1[C@H]1c2n[nH]c(=O)c3cc(F)cc(c23)N[C@@H]1c1ccc(F)cc1 [3a″, (8S,9R)-5-Fluoro-8-(4-fluorophenyl)-9-(1-methyl-1H-1,2,4-triazol-5-yl)-2,7,8,9-tetrahydro-3H-pyrido[4,3,2-de]phthalazin-3-one]",intratumoral PAR concentration,[3],significantly attenuated
same,P-glycoprotein substrate,[4],substrate of P-glycoprotein (P-gp)
